Tests used:
[1] = molecular target: human SOS1 (nucleotide exchange of K-Ras^G12C) (Homo sapiens, UniProt Q07889); test: Biochemical assay 2: K-Ras^G12C activation assay by hSOS1 at high GTP concentration (HTRF); conditions: high GTP; read-out: Assay 2 (KRAS-Activation by SOS high GTP) activity expressed as IC50
[2] = molecular target: human SOS1 (loading of human K-Ras^G12C-GDP with fluorescent GTP-analog) (Homo sapiens, UniProt Q07889); test: Biochemical assay 3: K-Ras^G12C activation assay by hSOS1 (HTRF); conditions: no GTP; for IC50: read-out: Assay 3 (KRAS-Activation by SOS no GTP) activity expressed as IC50; for inhibition at 20 µM: read-out: Assay 3 (KRAS-Activation by SOS no GTP) activity expressed as % inhibition at 20 μM

Row | Compound | IC50 [1] [µM] | IC50 [2] [µM] | inhibition at 20 µM [2] [%]
1 | COc1cc2nc(C)nc(NC(C)c3cccc4[nH]nc(C)c34)c2cc1OC (stereo not drawn) [Example 13, 6,7-dimethoxy-2-methyl-N-[1-(3-methyl-1H-indazol-4-yl)ethyl]quinazolin-4-amine] | 2.65 | 7.73 | –
2 | COc1cc2nc(C)nc(NC(C)c3ccc(-c4cccc5cn[nH]c45)s3)c2cc1OC (stereo not drawn) [Example 246, N-{1-[5-(1H-indazol-7-yl)thiophen-2-yl]ethyl}-6,7-dimethoxy-2-methylquinazolin-4-amine] | 4.21 | – | 44
3 | COc1cc2nc(C)nc(NC(C)c3cccc4sccc34)c2cc1OC (stereo not drawn) [Example 205, N-[1-(1-benzothiophen-4-yl)ethyl]-6,7-dimethoxy-2-methylquinazolin-4-amine] | 0.0872 | 0.126 | –
4 | COc1cc2nc(C)nc(N[C@H](C)c3cccc(C(N)=O)c3)c2cc1OC [Example 199, 3-{(1R)-1-[(6,7-dimethoxy-2-methylquinazolin-4-yl)amino]ethyl}benzamide] | 1.42 | 6.7 | –
5 | COc1cc2nc(C)nc(NC(C)c3cccc4cn(C)nc34)c2cc1OC (stereo not drawn) [Example 8, 6,7-dimethoxy-2-methyl-N-[1-(2-methyl-2H-indazol-7-yl)ethyl]quinazolin-4-amine] | 19.8 | – | 14
6 | COc1cc2nc(C)nc(NC(C)c3ccc(-c4ccccc4)o3)c2cc1OC (stereo not drawn) [Example 213, 6,7-dimethoxy-2-methyl-N-[1-(5-phenylfuran-2-yl)ethyl]quinazolin-4-amine] | 6.31 | – | 42
7 | COc1cc2nc(C)nc(NC(C)c3csc(-c4ccc(F)cc4CN)c3)c2cc1OC (stereo not drawn) [Example 255, N-[1-{5-[2-(aminomethyl)-4-fluorophenyl]thiophen-3-yl}ethyl]-6,7-dimethoxy-2-methylquinazolin-4-amine] | 0.317 | 0.39 | –
8 | COc1cc2nc(C)nc(NC(C)c3csc(Br)c3)c2cc1OC (stereo not drawn) [Example 239, N-[1-(5-bromothiophen-3-yl)ethyl]-6,7-dimethoxy-2-methylquinazolin-4-amine] | 3.83 | 14.3 | –
9 | COc1cc2nc(C)nc(N[C@H](C)c3ccc(S(C)(=O)=O)cc3)c2cc1OC [Example 188, 6,7-dimethoxy-2-methyl-N-{(1R)-1-[4-(methylsulfonyl)phenyl]ethyl}quinazolin-4-amine] | 16.7 | – | 38
10 | COc1cc2nc(C)nc(NC(C)c3ccc(C4=CCOCC4)s3)c2cc1OC (stereo not drawn) [Example 235, N-{1-[5-(3,6-dihydro-2H-pyran-4-yl)thiophen-2-yl]ethyl}-6,7-dimethoxy-2-methylquinazolin-4-amine] | 4.72 | 5.27 | –
11 | COc1cc2nc(C)nc(NC(C)c3csc(-c4cnc5n4CCC5)c3)c2cc1OC (stereo not drawn) [Example 253, N-{1-[5-(6,7-dihydro-5H-pyrrolo[1,2-a]imidazol-3-yl)thiophen-3-yl]ethyl}-6,7-dimethoxy-2-methylquinazolin-4-amine] | 2.33 | 5.8 | –
12 | COc1cc2nc(C)nc(NC(C)c3ccc(-c4ccccc4CCO)s3)c2cc1OC (stereo not drawn) [Example 180, 2-[2-(5-{1-[(6,7-dimethoxy-2-methylquinazolin-4-yl)amino]ethyl}thiophen-2-yl)phenyl]ethanol] | 0.921 | 0.82 | –
